We go through 14 compounds from article PMC10786919, “Design-rules for stapled peptides with in vivo activity and their application to Mdm2/X antagonists” (Nature Communications, 2024).

Like-named read-outs stand apart in the source and are kept apart here. Positions of bridges follow the written chain, without caps; N, C: chain ends. Non-standard residues stand in square brackets, D forms with d. Residues, ends and D or L forms follow the SMILES beside them. R8 = C=CCCCCCC[C@@](C)(N)C(=O)O; S5 = C=CCCC[C@](C)(N)C(=O)O; Ahx = NCCCCCC(=O)O Where only a bound is given, the exact number is not on record here.

What all share (type): cell-based
Data set [1] relates to p53 responsive β-lactamase reporter in HCT116 cells. Kind of data set: cells. Conditions: 0% FBS 4Hr. The procedure:
HCT116 cells were stably transfected with a p53 responsive β-lactamase reporter and expanded in McCoy’s 5 A Medium with 10% fetal bovine serum (FBS), Blasticidin, and Penicillin/Streptomycin and then transferred to 1.5 ml freezing vials and stored under liquid nitrogen in growth media containing 5% DMSO. […] The cells were then seeded into a 384-well plate at a density of 8000 cells per well. […] The final working concentration of DMSO was 0.5%. β-lactamase activity was detected using the ToxBLAzer Dual Screen (Invitrogen), as per the manufacturer’s instructions. Measurements were made using the Envision multiplate reader (Perkin–Elmer). […] Measurements were taken a minimum of three times (biological replicates) and values are reported as geometric means of the replicates.

Data set [2] can be described thus: Lactate dehydrogenase (LDH) release assay. The note with it: LDH: Cytotoxicity assay EC50. The procedure, abridged:
(§1)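 Membrane damage measured as lactate dehydrogenase release (CytoTox-ONE kit) from p53-responsive β-lactamase reporter HCT116 cells plated at 8000 per well. Final DMSO 0.5%; geometric mean reported from a minimum of three biological replicates.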

Another data set relates to HCT116 cells. Kind of data set: Lactate dehydrogenase (LDH) release assay. The essentials: as §1
The mark [3] stands for this setting: read-out: p53 reporter assay EC50.

For `CC(=O)N[C@@H](CCCNC(=N)N)C(=O)N[C@@H](CCCNC(=N)N)C(=O)NCCCCCC(=O)N[C@H](C(=O)N[C@@H](CO)C(=O)N[C@@H](Cc1ccccc1)C(=O)N[C@]1(C)CCCCCCC=CCCC[C@@](C)(C(=O)N[C@@H](CCC(=O)O)C(=O)N[C@@H](CC(N)=O)C(=O)N[C@@H](Cc2ccccc2)C(N)=O)NC(=O)[C@H](CC(C)C)NC(=O)[C@H](CC(C)C)NC(=O)[C@H](C)NC(=O)[C@H](Cc2c[nH]c3ccccc23)NC(=O)[C@H](Cc2ccc(O)cc2)NC(=O)[C@H](CCC(=O)O)NC1=O)[C@@H](C)O` [MP-037] (Ac-RR[Ahx]TSF[R8]EYWALL[S5]ENF-NH2; staple 7-14), the EC50 (in general, the concentration needed to bring the measured effect to its halfway point) in data set [1] (setting [3]) is 20.2 µM; in data set [2], over 50 µM. Moreover, the “LDH: Cytotoxicity assay % Effect” value with HCT116 cells was found to be 3.464%.
On the same counts, the results for `CC(=O)N[C@@H](CCCCN)C(=O)N[C@@H](CCCCN)C(=O)NCCCCCC(=O)N[C@H](C(=O)N[C@@H](CO)C(=O)N[C@@H](CC(C)C)C(=O)N[C@]1(C)CCCCCCC=CCCC[C@@](C)(C(=O)N[C@@H](CCC(=O)O)C(=O)N[C@@H](CC(N)=O)C(=O)N[C@@H](Cc2ccccc2)C(N)=O)NC(=O)[C@H](Cc2c[nH]c3ccccc23)NC(=O)[C@H](CC(C)C)NC(=O)[C@H](C)NC(=O)[C@H](Cc2ccccc2)NC(=O)[C@H](Cc2ccc(O)cc2)NC(=O)[C@H](CCC(=O)O)NC1=O)[C@@H](C)O` [MP-039] (Ac-KK[Ahx]TSL[R8]EYFALW[S5]ENF-NH2; staple 7-14) are over 50 µM, over 50 µM and 28.85%.
For the compound `CC(=O)N[C@H](C(=O)N[C@@H](CO)C(=O)N[C@@H](CC(C)C)C(=O)N[C@]1(C)CCCCCCC=CCCC[C@@](C)(C(N)=O)NC(=O)[C@H](Cc2c[nH]c3ccccc23)NC(=O)[C@H](CC(C)C)NC(=O)[C@H](C)NC(=O)[C@H](Cc2ccccc2)NC(=O)[C@H](Cc2ccc(O)cc2)NC(=O)[C@H](CCC(=O)O)NC1=O)[C@@H](C)O` [MP-2040] (Ac-TSL[R8]EYFALW[S5]-NH2; staple 4-11), the results for the EC50 in data set [1] (setting [3]) and in data set [2] were 7.46 µM and over 50 µM, respectively. The “LDH: Cytotoxicity assay % Effect” value in the data set with HCT116 cells stood at 24.89%.
The corresponding values for `CC(=O)N1CCC[C@H]1C(=O)N[C@@H](CCCNC(=N)N)C(=O)N[C@@H](Cc1ccccc1)C(=O)N[C@]1(C)CCCCCCC=CCCC[C@@](C)(C(=O)N[C@@H](CCC(=O)O)C(N)=O)NC(=O)[C@H](CC(C)C)NC(=O)[C@H](CCCNC(=N)N)NC(=O)[C@H](Cc2ccc(O)cc2)NC(=O)[C@H](Cc2c[nH]c3ccccc23)NC(=O)[C@H](Cc2ccc(O)cc2)NC(=O)[C@H](CCC(=O)O)NC1=O` [MP-2030] (Ac-PRF[R8]EYWYRL[S5]E-NH2; staple 4-11) are 6.62 µM, over 50 µM and 32.25%.
Consider `CC(=O)N[C@@H](CCCNC(=N)N)C(=O)NCCCCCC(=O)N[C@H](C(=O)N[C@@H](CO)C(=O)N[C@@H](Cc1ccccc1)C(=O)N[C@]1(C)CCCCCCC=CCCC[C@@](C)(C(=O)N[C@@H](CCC(=O)O)C(=O)N[C@@H](CC(N)=O)C(=O)N[C@@H](Cc2ccccc2)C(N)=O)NC(=O)[C@H](CC(C)C)NC(=O)[C@H](CC(C)C)NC(=O)[C@H](C)NC(=O)[C@H](Cc2c[nH]c3ccccc23)NC(=O)[C@H](Cc2ccc(O)cc2)NC(=O)[C@H](CCC(=O)O)NC1=O)[C@@H](C)O` [MP-038], for which the EC50 in data set [1] (setting [3]) is 2.49 µM; in data set [2], over 50 µM. Besides, in the data set on HCT116 cells, the “LDH: Cytotoxicity assay % Effect” value is 5.515%.
For `CC(=O)N1CCC[C@H]1C(=O)N[C@@H](CCCNC(=N)N)C(=O)N[C@@H](Cc1ccccc1)C(=O)N[C@]1(C)CCCCCCC=CCCC[C@@](C)(C(N)=O)NC(=O)[C@H](CC(C)C)NC(=O)[C@H](CCCNC(=N)N)NC(=O)[C@H](Cc2ccc(O)cc2)NC(=O)[C@H](Cc2c[nH]c3ccccc23)NC(=O)[C@H](Cc2ccc(O)cc2)NC(=O)[C@H](CCC(=O)O)NC1=O` [MP-2032] (Ac-PRF[R8]EYWYRL[S5]-NH2; staple 4-11), the EC50 is 25.7 µM in data set [1] (setting [3]) and over 50 µM in data set [2]. For the same compound, in the data set on HCT116 cells, the “LDH: Cytotoxicity assay % Effect” value was -1.239%.
The corresponding values for `CC(=O)N1CCC[C@H]1C(=O)N[C@@H](CCCNC(=N)N)C(=O)N[C@@H](Cc1ccccc1)C(=O)N[C@]1(C)CCCCCCC=CCCC[C@@](C)(C(N)=O)NC(=O)[C@H](CC(C)C)NC(=O)[C@H](CCCNC(=N)N)NC(=O)[C@H](CC(C)C)NC(=O)[C@H](Cc2c[nH]c3ccccc23)NC(=O)[C@H](Cc2ccc(O)cc2)NC(=O)[C@H](CCC(=O)O)NC1=O` [MP-031] (Ac-PRF[R8]EYWLRL[S5]-NH2; staple 4-11) are 32.4 µM, over 50 µM and -3.388%.
Take `CC(=O)N[C@H](C(=O)N[C@@H](CO)C(=O)N[C@@H](Cc1ccccc1)C(=O)N[C@]1(C)CCCCCCC=CCCC[C@@](C)(C(N)=O)NC(=O)[C@H](CC(C)C)NC(=O)[C@H](CCCCN)NC(=O)[C@H](CC(C)C)NC(=O)[C@H](Cc2c[nH]c3ccccc23)NC(=O)[C@H](Cc2ccc(O)cc2)NC(=O)[C@H](CCC(=O)O)NC1=O)[C@@H](C)O` [MP-034] (Ac-TSF[R8]EYWLKL[S5]-NH2; staple 4-11): the EC50 is 12.8 µM in data set [1] (setting [3]) and over 50 µM in data set [2]. Further, the “LDH: Cytotoxicity assay % Effect” value in the data set with HCT116 cells came out at 3.672%.
In the case of `CC(=O)N[C@H](C(=O)N[C@@H](CO)C(=O)N[C@@H](Cc1ccccc1)C(=O)N[C@]1(C)CCCC=CCCCCCC[C@@](C)(C(N)=O)NC(=O)[C@H](CC(C)C)NC(=O)[C@H](CC(C)C)NC(=O)[C@H](C)NC(=O)[C@H](Cc2c[nH]c3ccccc23)NC(=O)[C@H](Cc2ccc(O)cc2)NC(=O)[C@H](CCC(=O)O)NC1=O)[C@@H](C)O` [MP-035], the EC50 in data set [1] (setting [3]) is 8.8 µM; in data set [2], over 50 µM. Moreover, in the data set with HCT116 cells, the “LDH: Cytotoxicity assay % Effect” value is reported as 37.58%.
Regarding `CC(=O)N[C@H](C(=O)N[C@@H](CO)C(=O)N[C@@H](Cc1ccccc1)C(=O)N[C@]1(C)CCCCCCC=CCCC[C@@](C)(C(=O)N[C@@H](CCC(N)=O)C(=O)N[C@@H](CC(N)=O)C(=O)N[C@@H](Cc2ccccc2)C(N)=O)NC(=O)[C@H](CC(C)C)NC(=O)[C@H](CC(C)C)NC(=O)[C@H](C)NC(=O)[C@H](Cc2c[nH]c3ccccc23)NC(=O)[C@H](Cc2ccc(O)cc2)NC(=O)[C@H](CCC(=O)O)NC1=O)[C@@H](C)O` [MP-2026], the results for the EC50 in data set [1] (setting [3]) and in data set [2] were 0.98 µM and over 50 µM, respectively. In addition, in the data set on HCT116 cells, the “LDH: Cytotoxicity assay % Effect” value turned out to be 23.2%.
For `CC(=O)N[C@H](C(=O)N[C@@H](CO)C(=O)N[C@@H](Cc1ccccc1)C(=O)N[C@]1(C)CCCCCCC=CCCC[C@@](C)(C(N)=O)NC(=O)[C@H](CC(C)C)NC(=O)[C@H](CCCNC(=N)N)NC(=O)[C@H](Cc2ccc(O)cc2)NC(=O)[C@H](Cc2c[nH]c3ccccc23)NC(=O)[C@H](Cc2ccc(O)cc2)NC(=O)[C@H](CCC(=O)O)NC1=O)[C@@H](C)O` [MP-033] (Ac-TSF[R8]EYWYRL[S5]-NH2; staple 4-11), the EC50 in data set [1] (setting [3]) is 13.6 µM; in data set [2] it was over 50 µM. Also, the “LDH: Cytotoxicity assay % Effect” value in the data set with HCT116 cells amounted to 1.548%.
For the compound `CC(=O)N[C@@H](CCCCN)C(=O)NCCCCCC(=O)N[C@H](C(=O)N[C@@H](CO)C(=O)N[C@@H](C)C(=O)N[C@]1(C)CCCCCCC=CCCC[C@@](C)(C(=O)N[C@@H](CCC(=O)O)C(=O)N[C@@H](CC(N)=O)C(=O)N[C@@H](Cc2ccccc2)C(N)=O)NC(=O)[C@H](CC(C)C)NC(=O)[C@H](CC(C)C)NC(=O)[C@H](C)NC(=O)[C@H](Cc2c[nH]c3ccccc23)NC(=O)[C@H](Cc2ccc(O)cc2)NC(=O)[C@H](CCC(=O)O)NC1=O)[C@@H](C)O` [MP-068] (Ac-K[Ahx]TSA[R8]EYWALL[S5]ENF-NH2; staple 6-13), the EC50 in data set [1] (setting [3]) was over 50 µM.
With `CC(=O)N[C@@H](CCCCN)C(=O)N[C@@H](CC(C)C)C(=O)N[C@@H](C)C(=O)N[C@@H](CCCCN)C(=O)NCCCCCC(=O)N[C@H](C(=O)N[C@@H](CO)C(=O)N[C@@H](Cc1ccccc1)C(=O)N[C@]1(C)CCCCCCC=CCCC[C@@](C)(C(=O)N[C@@H](CCC(=O)O)C(=O)N[C@@H](CC(N)=O)C(=O)N[C@@H](Cc2ccccc2)C(N)=O)NC(=O)[C@H](CC(C)C)NC(=O)[C@H](CC(C)C)NC(=O)[C@H](C)NC(=O)[C@H](Cc2c[nH]c3ccccc23)NC(=O)[C@H](Cc2ccc(O)cc2)NC(=O)[C@H](CCC(=O)O)NC1=O)[C@@H](C)O` [MP-2041] (Ac-KLAK[Ahx]TSF[R8]EYWALL[S5]ENF-NH2; staple 9-16), the EC50 was 6.06 µM in data set [1] (setting [3]) and over 50 µM in data set [2]. The “LDH: Cytotoxicity assay % Effect” value in the data set with HCT116 cells is reported as 5.898%.
In the case of `CC(=O)N[C@H](C(=O)N[C@@H](CO)C(=O)N[C@@H](Cc1ccccc1)C(=O)N[C@]1(C)CCCCCCC=CCCC[C@@](C)(C(=O)N[C@@H](CCC(=O)O)C(=O)N[C@@H](CC(N)=O)C(=O)N[C@@H](C)C(N)=O)NC(=O)[C@H](CC(C)C)NC(=O)[C@H](CC(C)C)NC(=O)[C@H](C)NC(=O)[C@H](Cc2c[nH]c3ccccc23)NC(=O)[C@H](Cc2ccc(O)cc2)NC(=O)[C@H](CCC(=O)O)NC1=O)[C@@H](C)O` [MP-088], in data set [1] (read-out: p53 reporter assay: EC50), the EC50 was 22.3 µM.
